Laboratory results taken from the supplement of paper PMC9549728.
Structures can show the parent of a compound that is named as a salt.

Experiments:
Test in all cases: IC50 (viability, PrestoBlue) (log10 nM)
Settings in all cases: exposure time: 72 h
[1] = tested on: murine normal gastric organoid
How it was run: (§1)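 Compounds diluted in DMSO were pre-spotted into 384-well plates at nine final concentrations (6.7–25,004 nM), and mechanically dissociated murine gastric corpus organoids, uninduced or Cre-induced (RAS-activated, WNT-activated, diffuse), were seeded in 15 μl Matrigel with 45 μl medium on top for 72 h. Viability was then read as fluorescence at 560/590 nm after 3 h at 37°C with 1× final PrestoBlue. IC50 values were derived by non-linear regression in Prism and are given in log10 nM, averaged over three passages with two wells each.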

[2] = tested on: murine gastric organoid RAS-activated (Kras G12D; Tp53 R172H)
How it was run: as §1

[3] = tested on: murine gastric organoid WNT-activated (Apc fl/fl; Tp53 R172H)
How it was run: as §1

[4] = tested on: murine gastric organoid diffuse (Cdh1 fl/fl; Apc fl/fl)
How it was run: as §1

Row | Compound | IC50 (log10 nM) [1] | IC50 (log10 nM) [2] | IC50 (log10 nM) [3] | IC50 (log10 nM) [4]
1 | Cc1nc(Nc2ncc(C(=O)Nc3c(C)cccc3Cl)s2)cc(N2CCN(CCO)CC2)n1 [Dasatinib hydrochloride] | 2.05 | 1.86 | 1.29 | 2.3
2 | Cc1ccc(C(=O)Nc2ccc(CN3CCN(C)CC3)c(C(F)(F)F)c2)cc1C#Cc1cnc2cccnn12 [Ponatinib] | 3.04 | 3.27 | 1.71 | 3.08
3 | Nc1nc(Cl)nc2c1ncn2[C@H]1C[C@H](O)[C@@H](CO)O1 [Cladribine] | 3.19 | 3.08 | 3.27 | 3.04
4 | CC(C)(C)c1cc(NC(=O)Nc2ccc(-c3cn4c(n3)sc3cc(OCCN5CCOCC5)ccc34)cc2)no1 [Quizartinib] | 3.06 | < 0.826 | 2.01 | 3.09
5 | Cn1cnc2c(F)c(Nc3ccc(Br)cc3Cl)c(C(=O)NOCCO)cc21 [Selumetinib] | 2.47 | 2.61 | 3.32 | 3.15
6 | COc1cc2c(cc1OC)CN(CCc1ccc(NC(=O)c3cc(OC)c(OC)cc3NC(=O)c3cnc4ccccc4c3)cc1)CC2 [Tariquidar] | 4.26 | 3.73 | 3.76 | 3.95
7 | Cn1nccc1Nc1nccc(-c2ccn([C@H](CO)c3ccc(Cl)c(F)c3)c(=O)c2)n1 [GDC-0994] | 3.71 | 4.35 | 2.88 | 3.23
8 | COc1cc([C@@H]2c3cc4c(cc3[C@@H](O[C@@H]3O[C@@H]5CO[C@@H](c6cccs6)O[C@H]5[C@H](O)[C@H]3O)[C@H]3COC(=O)[C@H]23)OCO4)cc(OC)c1O [Teniposide] | 1.79 | 1.83 | 2.84 | 2.35
9 | CN(C)CCN1C(=O)c2cccc3cc(N)cc(c23)C1=O [Amonafide] | 3.1 | 3.03 | 2.39 | 3.23
10 | COC(=O)N[C@@H](C)CNc1nccc(-c2cn(C(C)C)nc2-c2cc(Cl)cc(NS(C)(=O)=O)c2F)n1 [LGX818] | 3.91 | < 0.826 | 2.62 | < 0.826
11 | C/C=C1\NC(=O)[C@H]2CSSCC/C=C/[C@H](CC(=O)N[C@H](C(C)C)C(=O)N2)OC(=O)[C@H](C(C)C)NC1=O [Romidepsin] | < 0.826 | < 0.826 | 0.997 | 0.852
12 | Nc1ccccc1NC(=O)c1ccc(CNC(=O)OCc2cccnc2)cc1 [Entinostat] | 4.22 | 3.36 | 3.99 | 3.39
13 | CC[C@]1(O)C[C@@H]2CN(CCc3c([nH]c4ccccc34)[C@@](C(=O)OC)(c3cc4c(cc3OC)N(C)[C@H]3[C@@](O)(C(=O)OC)[C@H](OC(C)=O)[C@]5(CC)C=CCN6CC[C@]43[C@@H]65)C2)C1 [Vinblastine sulfate] | < 0.826 | < 0.826 | < 0.826 | < 0.826
